This is an account of results in ChEMBL document CHEMBL3044814, “Seasonal changes in chemical composition of epicuticular waxes from the leaves of Baccharis linearis” (1999).

The structures appear in SMILES notation. In brackets after ≈: the same amount, converted by molar mass.

In one assay the test system is Artemia salina. As to the kind of experiment: Toxicity against Artemia salina (brine shrimp). It is filed as functional.
The test system of a further assay is Spodoptera littoralis. Nature of the assay: Antifeedant activity against fifth-instar larvae of Spodoptera littoralis at 10 ug/cm'2 by disk-choice assay. In kind it is functional.

For `CC(=O)Oc1ccc(/C=C/C(=O)O)cc1CC=C(C)C`, the LC50 (in general, the concentration lethal to half of the exposed cells or organisms) with Artemia salina was < 50 µg/mL.
`C=C(COC(C)=O)C1Cc2cc(O)c(C(C)=O)cc2O1` (centres undefined) [ACETYLATED DIHYDROBENZOFURAN] showed an FR50 with Spodoptera littoralis of 0.75. In addition, the LC50 in the assay on Artemia salina was ≤ 10 µg/mL.
As for `C=C1CC[C@@H]2[C@H]([C@H]3[C@H]1CC[C@]3(C)O)C2(C)C` [SPATHULENOL], the LC50 in the assay on Artemia salina was < 3 µg/mL.
Take `CC1(C)CC[C@]2(C(=O)O)CC[C@]3(C)C(=CC[C@@H]4[C@@]5(C)CC[C@H](O)C(C)(C)[C@@H]5CC[C@]43C)[C@@H]2C1` [OLEANOLIC_ACID]: in the assay with Spodoptera littoralis, the FR50 stood at 1.34. For the same compound, the LC50 with Artemia salina stood at 10 µg/mL (≈ 21.9 µM).
`COC(=O)/C=C/c1ccc2c(c1)C=CC(C)(C)O2` [WERNERIACHROMENE]: the FR50 in the assay on Spodoptera littoralis was 0.2. The LC50 in the assay with Artemia salina is < 3 µg/mL.
Taken in the same sequence, the figures for `CC(=O)OC/C=C(/CC[C@@]1(C)[C@H](C)CC[C@@]2(CO)C(COC(C)=O)=CCC[C@@H]21)COC(C)=O` were 0.99 and > 100 µg/mL.
Taken in the same sequence, the figures for `CCCC#CC#C/C=C/C(=O)OC` [LACHNOPHYLLUM ESTER] were 0.31 and 5 µg/mL (≈ 28.4 µM).
As to `COc1c(-c2ccc(O)cc2)oc2cc(O)cc(O)c2c1=O` [ISOKAEMPFERIDE], in the assay with Artemia salina, the LC50 is ≤ 10 µg/mL.
`COc1c(-c2ccc(O)c(O)c2)oc2cc(O)cc(O)c2c1=O` [3-O-METHYLQUERCETIN]: the LC50 in the assay with Artemia salina was 10 µg/mL (≈ 31.6 µM).
For the compound `COc1cc(-c2oc3cc(O)cc(O)c3c(=O)c2OC)ccc1O` [3,3'-O-DIMETHYLQUERCETIN], the LC50 in the assay with Artemia salina was ≤ 10 µg/mL.
In the assay with Spodoptera littoralis, `CC1(C)CC[C@]2(CO)CC[C@]3(C)C(=CC[C@@H]4[C@@]5(C)CC[C@H](O)C(C)(C)[C@@H]5CC[C@]43C)[C@@H]2C1` [ERYTHRODIOL] registered an FR50 of 0.88. The compound also had an LC50 in the assay with Artemia salina of 50 µg/mL (≈ 113 µM).
Regarding `CC1(C)CC[C@]2(C(=O)O)CC[C@]3(C)C(=CC[C@@H]4[C@@]5(C)C[C@@H](O)[C@H](O)C(C)(C)[C@@H]5CC[C@]43C)[C@@H]2C1` [MASLINIC ACID], the FR50 in the assay with Spodoptera littoralis came to 1.34. In addition, the LC50 in the assay on Artemia salina is 20.2 µg/mL (≈ 42.7 µM).
